Data published in ChEMBL document CHEMBL4340566, “Development of indazole mineralocorticoid receptor antagonists and investigation into their selective late-stage functionalization” (Bioorg Med Chem Lett, 2019).
pIC50: −log10 of the molar value. Blank lines part the entries; values can stand above or below the compound they belong to.

Assays:
[1] = target: T1, Mineralocorticoid receptor (Homo sapiens, UniProt P08235); experiment: Antagonist activity at mineralocorticoid receptor (unknown origin)
T1 sequence (P08235 whole entry): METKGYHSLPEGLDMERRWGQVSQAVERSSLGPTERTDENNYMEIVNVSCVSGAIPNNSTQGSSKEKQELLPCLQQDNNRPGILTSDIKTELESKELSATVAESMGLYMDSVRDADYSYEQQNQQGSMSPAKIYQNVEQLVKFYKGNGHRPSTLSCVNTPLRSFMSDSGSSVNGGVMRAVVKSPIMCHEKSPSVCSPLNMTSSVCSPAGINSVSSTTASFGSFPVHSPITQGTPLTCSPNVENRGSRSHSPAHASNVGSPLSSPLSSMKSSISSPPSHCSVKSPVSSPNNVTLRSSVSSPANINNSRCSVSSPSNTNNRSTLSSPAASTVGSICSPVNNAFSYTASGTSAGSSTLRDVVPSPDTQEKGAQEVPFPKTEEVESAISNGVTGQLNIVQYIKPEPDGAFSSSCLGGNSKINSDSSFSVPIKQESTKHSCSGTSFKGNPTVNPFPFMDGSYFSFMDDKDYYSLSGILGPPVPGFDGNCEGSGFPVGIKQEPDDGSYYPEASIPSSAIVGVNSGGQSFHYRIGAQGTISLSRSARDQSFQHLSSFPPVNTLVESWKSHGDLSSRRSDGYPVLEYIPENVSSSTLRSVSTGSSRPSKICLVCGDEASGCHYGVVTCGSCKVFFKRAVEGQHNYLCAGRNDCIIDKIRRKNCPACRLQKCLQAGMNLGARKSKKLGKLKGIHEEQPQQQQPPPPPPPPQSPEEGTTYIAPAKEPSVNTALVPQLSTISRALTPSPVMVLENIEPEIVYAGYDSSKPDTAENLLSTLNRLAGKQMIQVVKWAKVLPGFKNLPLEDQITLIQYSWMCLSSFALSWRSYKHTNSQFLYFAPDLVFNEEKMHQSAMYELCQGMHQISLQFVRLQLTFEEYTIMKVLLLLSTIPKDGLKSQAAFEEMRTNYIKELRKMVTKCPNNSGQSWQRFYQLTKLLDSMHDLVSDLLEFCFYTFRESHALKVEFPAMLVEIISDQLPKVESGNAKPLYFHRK

[2] = Oral bioavailability in Sprague-Dawley rat at 2 mg/kg; format: ADME, organism-based; conditions: in vivo
[3] = Half-life in Sprague-Dawley rat at 1 mg/kg, iv or 2 mg/kg, po; format: ADME, organism-based; conditions: in vivo
Homo sapiens = organism: Homo sapiens; experiment: Selectivity ratio of IC50 for glucocorticoid receptor (unknown origin) to IC50 for mineralocorticoid receptor (unknown origin)
[4] = Metabolic stability in human liver microsomes assessed as parent compound remaining measured at 0.5 hrs; format: ADME, Microsome; conditions: read-out: Stability
[5] = Half-life in Wistar Han rat at 1 mg/kg, iv or 2 mg/kg, po; format: ADME, organism-based; conditions: in vivo; for half-life: Wistar Han
Glucocorticoid receptor = target: T2, Glucocorticoid receptor (Homo sapiens, UniProt P04150); experiment: Binding affinity to glucocorticoid receptor (unknown origin) by gel filtration assay
T2 sequence (P04150 whole entry): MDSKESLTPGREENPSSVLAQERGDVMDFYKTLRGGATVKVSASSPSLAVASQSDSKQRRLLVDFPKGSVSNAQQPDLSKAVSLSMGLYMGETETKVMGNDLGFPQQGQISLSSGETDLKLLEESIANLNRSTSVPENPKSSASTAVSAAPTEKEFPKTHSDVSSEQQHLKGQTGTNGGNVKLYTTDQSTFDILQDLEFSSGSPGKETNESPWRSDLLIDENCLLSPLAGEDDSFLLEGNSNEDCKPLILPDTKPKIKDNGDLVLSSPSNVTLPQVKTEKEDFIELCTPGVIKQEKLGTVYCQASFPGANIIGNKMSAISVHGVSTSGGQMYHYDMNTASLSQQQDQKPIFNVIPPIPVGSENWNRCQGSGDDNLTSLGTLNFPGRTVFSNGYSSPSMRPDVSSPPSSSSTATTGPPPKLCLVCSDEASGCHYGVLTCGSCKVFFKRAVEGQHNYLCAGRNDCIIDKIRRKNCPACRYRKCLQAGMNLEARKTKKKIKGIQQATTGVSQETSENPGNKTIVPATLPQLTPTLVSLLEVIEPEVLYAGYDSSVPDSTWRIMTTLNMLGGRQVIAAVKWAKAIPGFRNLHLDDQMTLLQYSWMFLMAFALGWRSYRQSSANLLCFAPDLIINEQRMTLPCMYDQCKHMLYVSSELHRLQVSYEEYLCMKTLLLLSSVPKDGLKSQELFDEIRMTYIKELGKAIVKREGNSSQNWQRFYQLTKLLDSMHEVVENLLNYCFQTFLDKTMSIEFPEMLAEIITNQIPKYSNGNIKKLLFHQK

[6] = Oral bioavailability in Wistar Han rat at 2 mg/kg; format: ADME, organism-based; conditions: in vivo
[7] = Clearance in Wistar Han rat at 1 mg/kg, iv or 2 mg/kg, po; format: ADME, organism-based; conditions: in vivo
[8] = Clearance in Sprague-Dawley rat at 1 mg/kg, iv or 2 mg/kg, po; format: ADME, organism-based; conditions: in vivo
[9] = Drug metabolism in human liver microsomes assessed as oxidation of electron-rich indole core at 10 uM preincubated for 1 hr followed by NADPH addition by HRMS/MS fragmentation analysis; format: ADME, Microsome
[10] = Photostability of the compound under UV-irradiation; format: physicochemical
[11] = Drug metabolism in rat liver microsomes assessed as oxidation of electron-rich indole core at 10 uM preincubated for 1 hr followed by NADPH addition by HRMS/MS fragmentation analysis; format: ADME, Microsome
[12] = Clearance in Sprague-Dawley rat at 2 mg/kg, iv or 10 mg/kg, po; format: ADME, organism-based; conditions: in vivo
[13] = Half-life in Sprague-Dawley rat at 2 mg/kg, iv or 10 mg/kg, po; format: ADME, organism-based; conditions: in vivo
[14] = Oral bioavailability in Sprague-Dawley rat at 10 mg/kg; format: ADME, organism-based; conditions: in vivo
[15] = Half-life in Wistar Han rat at 2 mg/kg, iv or 10 mg/kg, po; format: ADME, organism-based; conditions: in vivo
[16] = Clearance in Wistar Han rat at 2 mg/kg, iv or 10 mg/kg, po; format: ADME, organism-based; conditions: in vivo
[17] = target: T1, Mineralocorticoid receptor; experiment: Binding affinity to mineralocorticoid receptor (unknown origin)
[18] = Oral bioavailability in Wistar Han rat at 10 mg/kg; format: ADME, organism-based; conditions: in vivo

pIC50 [1]: 5.11
SMILES: CCC(CC)(c1ccc(Cl)cc1)c1cnc2c(NS(C)(=O)=O)cccn12

pIC50 [1]: 6.94
SMILES: CCC(CC)(c1ccc(Cl)cc1)n1ncc2c(NS(C)(=O)=O)cccc21

pIC50 [1]: 7.41
SMILES: CCC(CC)(c1ccc(Cl)cc1)n1ccc2c(NS(C)(=O)=O)cccc21

bioavailability [2]: 92% | half-life [3]: 5.7 h | Ratio IC50 (Homo sapiens): 1000 | pIC50 [1]: 7.70 | remaining at 0.5 h [4]: 52% | half-life [5]: 5.7 h | pIC50 (Glucocorticoid receptor): 5.78 | bioavailability ([6]; Wistar Han): 92% | clearance [7]: 14 mL/min/kg | clearance [8]: 14 mL/min/kg
SMILES: CC[C@@](c1ccc(C(F)(F)F)cc1)(C(C)O)n1ncc2c(NS(C)(=O)=O)cccc21 (some centres not stated)

half-life [5]: 1.5 h | clearance [7]: 41 mL/min/kg
SMILES: CC[C@](CO)(c1ccc(Cl)cc1)n1ccc2c(NS(C)(=O)=O)cccc21

pIC50 [1]: 7.66 | t1/2 [5]: 1.8 h | pIC50 (Glucocorticoid receptor): 4.99 | F [6]: 36%
SMILES: CC[C@@](c1ccc(C(F)(F)F)cc1)(C(C)O)n1ncc2c(NS(C)(=O)=O)cc(F)cc21 (single isomer, unassigned; diastereomer A) [listing 1 of 2 here]

Ratio IC50 (Homo sapiens): 640
SMILES: CC[C@@](c1ccc(C(F)(F)F)cc1)(C(C)O)n1ncc2c(NS(C)(=O)=O)cc(F)cc21 (single isomer, unassigned; diastereomer A) [listing 2 of 2 here]

pIC50 [1]: 6.25 | pIC50 (Glucocorticoid receptor): 6.69
SMILES: CCC(CO)(c1ccc(Cl)cc1)n1ccc2c(NS(C)(=O)=O)cc(Br)cc21 (racemic)

Drug metabolism [9]: Metabolite_Detected | Stability [10]: Unstable | Drug metabolism [11]: Metabolite_Detected
SMILES: CC[C@](C(=O)NC)(c1ccc(Cl)cc1)n1ccc2c(NS(C)(=O)=O)cccc21

pIC50 [1]: 5.23
SMILES: CCC(CC)(c1ccc(Cl)cc1)c1nnc2c(NS(C)(=O)=O)cccn12

clearance [12]: 27 mL/min/kg | half-life [13]: 1.9 h | bioavailability [14]: 59% | Ratio IC50 (Homo sapiens): 29 | pIC50 [1]: 7.19 | pIC50 (Glucocorticoid receptor): 6.06
SMILES: CC[C@](CO)(c1ccc(Cl)cc1)n1ncc2c(NS(C)(=O)=O)cccc21

pIC50 [1]: 7.39 | remaining at 0.5 h [4]: 84% | t1/2 [5]: 5.2 h | pIC50 (Glucocorticoid receptor): 5.40 | F [6]: 92%
SMILES: CC[C@@](c1ccc(C(F)(F)F)cc1)(C(C)O)n1ncc2c(NS(C)(=O)=O)cc(F)cc21 (single isomer, unassigned; diastereomer B) [listing 1 of 2 here]

half-life [15]: 1.6 h | clearance [16]: 34 mL/min/kg | pIC50 [17]: 7.49 | Ratio IC50 (Homo sapiens): 3.5 | bioavailability [18]: 30% | pIC50 [1]: 6.94 | pIC50 (Glucocorticoid receptor): 6.95
SMILES: CC[C@](CO)(c1ccc(Cl)cc1)n1ccc2c(NS(C)(=O)=O)cc(F)cc21

Ratio IC50 (Homo sapiens): 19
SMILES: CC[C@@](c1ccc(C(F)(F)F)cc1)(C(C)O)n1ncc2c(NS(C)(=O)=O)cc(F)cc21 (single isomer, unassigned; diastereomer B) [listing 2 of 2 here]

pIC50 [1]: 4.66 | pIC50 (Glucocorticoid receptor): 5.98
SMILES: CCC(CO)(c1ccc(Cl)cc1)n1ccc2c(NS(C)(=O)=O)cc(C#N)cc21 (racemic)
